From ChEMBL document CHEMBL3045775, “Methyl jasmonate-induced suppression of anthracnose rot in tomato fruit” (Crop Prot, 2007)
Calls of active or inactive are those of the source. The calls are words filed in the database; no cut-off is given here.

Assays:
[1] = test system: Colletotrichum coccodes; experiment: Antifungal activity against Colletotrichum coccodes infected tomato fruit assessed as decrease in fruit cracking at 100% v/v incubated for 7 days post-inoculation relative to control; format: functional, organism-based
[2] = test system: Colletotrichum coccodes; experiment: Antifungal activity against Colletotrichum coccodes infected tomato fruit assessed as suppression in lesion at 41.8 ul/l incubated for 20 min followed by compound wash out measured after 6 days relative to control; format: functional, organism-based
[3] = test system: Colletotrichum coccodes; experiment: Antifungal activity against Colletotrichum coccodes infected tomato fruit assessed as suppression in lesion at 41.8 ul/l inoculated on fruit pretreated with compound for 20 min measured after 9 days relative to control; format: functional
[4] = test system: Colletotrichum coccodes; experiment: Induction of Colletotrichum coccodes growth infected tomato fruit assessed as fruit cracking at 100% v/v incubated for 7 days post-inoculation relative to control; format: organism-based; conditions: in vivo, 168 h
[5] = test system: Colletotrichum coccodes; experiment: Antifungal activity against Colletotrichum coccodes infected tomato fruit assessed as spore germination at 44.8 ul/l inoculated on fruit pre-treated with compound for 7 days followed by 7 days incubation measured 24 hr post spore-inoculation on medium (reference value: 88.8 +/- 5.19%); format: functional
[6] = test system: Colletotrichum coccodes; experiment: Antifungal activity against Colletotrichum coccodes infected tomato fruit assessed as lesion area at 44.8 ul/l incubated for 7 days post-inoculation (reference value: 1.64 +/- 0.62 cm2); format: functional
[7] = test system: Colletotrichum coccodes; experiment: Antifungal activity against Colletotrichum coccodes assessed as spore germination at 44.8 ul/l inoculated on medium pretreated with compound for 24 hr followed by compound wash-out measured after 24 hr (100%); format: functional
[8] = test system: Colletotrichum coccodes; experiment: Antifungal activity against Colletotrichum coccodes assessed as spore production at 44.8 ul/l inoculated on medium pretreated with compound for 7 days followed by compound wash-out measured after 9 days (7.7 +/- 4.15 10^5/ml); format: functional
[9] = test system: Colletotrichum coccodes; experiment: Antifungal activity against Colletotrichum coccodes assessed as colony area at 44.8 ul/l inoculated on medium pretreated with compound for 7 days followed by compound wash-out measured after 7 days (5.98 +/- 0.36 cm2); format: functional
[10] = test system: Colletotrichum coccodes; experiment: Antifungal activity against Colletotrichum coccodes assessed as spore germination at 44.8 ul/l incubated for 24 hr post-inoculation (reference value: 100%); format: functional
[11] = test system: Colletotrichum coccodes; experiment: Antifungal activity against Colletotrichum coccodes assessed as spore production at 44.8 ul/l incubated for 9 days post-inoculation (reference value: 7.1 +/- 2.44 10^5/ml); format: functional
[12] = test system: Colletotrichum coccodes; experiment: Antifungal activity against Colletotrichum coccodes assessed as colony area at 44.8 ul/l incubated for 7 days post-inoculation (reference value: 9.55 +/- 0.25 cm2); format: functional
[13] = test system: Colletotrichum coccodes; experiment: Antifungal activity against Colletotrichum coccodes infected tomato fruit assessed as spore production at 44.8 ul/l inoculated on fruit pre-treated with compound for 7 days measured after 9 days (reference value: 11.2 +/- 4.29 10^5/ml); format: functional
[14] = test system: Colletotrichum coccodes; experiment: Antifungal activity against Colletotrichum coccodes infected tomato fruit assessed as lesion area at 44.8 ul/l inoculated on fruit pretreated with compound for 7 days measured after 7 days (reference value: 4.33 +/- 0.6 cm2); format: functional
[15] = test system: Colletotrichum coccodes; experiment: Antifungal activity against Colletotrichum coccodes infected tomato fruit assessed as spore germination at 44.8 ul/l incubated for 7 days post-inoculation followed by spore inoculation on medium measured after 24 hr (reference value: 96.5 +/- 2.66%); format: functional
[16] = test system: Colletotrichum coccodes; experiment: Antifungal activity against Colletotrichum coccodes infected tomato fruit assessed as spore production at 44.8 ul/l incubated for 9 days post-inoculation (reference value: 1.6 +/- 0.92 10^5/ml); format: functional

Q: How did the Activity [1] turn out when `Cl` was run?
A: Active

Q: `CC/C=C\CC1C(=O)CCC1CC(=O)OC` (configuration not stated) [METHYL JASMONATE] was tested. Which Activity [2] did it give?
A: inactive

Q: And the Activity [3]?
A: 20%

Q: And the Activity [4]?
A: 23%

Q: And the Activity [1]?
A: Active

Q: What about the Activity [5] of the same compound?
A: 55.2%

Q: What about the Activity [6] of the same compound?
A: 2.79 cm2

Q: What about the Activity [7] of the same compound?
A: 99%

Q: What about the Activity [8] of the same compound?
A: 7.6 ×10⁵ /ml

Q: What about the Activity [9] of the same compound?
A: 4.55 cm2

Q: What about the Activity [10] of the same compound?
A: 99.5%

Q: And the Activity [11]?
A: 6.9 ×10⁵ /ml

Q: What about the Activity [12] of the same compound?
A: 8.18 cm2

Q: And the Activity [13]?
A: 7.7 ×10⁵ /ml

Q: What about the Activity [14] of the same compound?
A: 4.74 cm2

Q: What about the Activity [15] of the same compound?
A: 51.6%

Q: What about the Activity [16] of the same compound?
A: 1 ×10⁵ /ml
